pIC50: −log10 of the molar value. Read-outs that look alike come from different tables or passages of the source.
Biological target: T1, SCD-1 (Homo sapiens, UniProt O00767)
T1 construct: 50 μg of protein from a HepG2 cell P2 pellet; endogenous in cells; host or cells: HepG2 cells (P2 pellet)
T1 sequence (O00767 1-359): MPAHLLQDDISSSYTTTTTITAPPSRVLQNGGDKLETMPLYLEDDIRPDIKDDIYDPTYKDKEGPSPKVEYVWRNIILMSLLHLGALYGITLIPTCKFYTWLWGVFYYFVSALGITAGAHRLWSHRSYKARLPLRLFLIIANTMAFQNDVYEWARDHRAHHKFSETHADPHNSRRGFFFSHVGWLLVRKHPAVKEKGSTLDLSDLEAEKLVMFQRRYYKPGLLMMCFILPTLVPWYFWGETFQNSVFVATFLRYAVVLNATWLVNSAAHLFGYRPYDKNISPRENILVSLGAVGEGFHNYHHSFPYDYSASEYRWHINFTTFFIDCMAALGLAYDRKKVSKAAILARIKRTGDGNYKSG
Test: Stearoyl-CoA desaturase assay (HepG2 cell P2 pellet)
Assay type: biochemical
Conditions: protein from HepG2 cell P2 pellet, 20 μM stearoyl-CoA, 15 min at 25° C., read-out: Ave IC50

[1] = Table 3, compounds of formula (Ic)
[2] = Table 1, compounds of formula (Ia)

pIC50 [1]	Compound	also measured
7.31 to 9.30	O=C(NCCC1CC1)c1ccc(N2CCC3(CC2)CCN(Cc2cccc(C(F)(F)F)c2)c2ccccc2O3)nc1 [Compound 169]	–
6.30 to 7.30	CC(C)CNC(=O)c1ccc(N2CCC3(CC2)CCN(Cc2cccc(C(F)(F)F)c2)c2ccccc2O3)nn1 [Compound 158]	–
–	CC(=O)NCC(=O)N1CCC2(CC1)CCN(Cc1cccc(C(F)(F)F)c1)c1ccccc1O2 [Compound 1, N-(2-oxo-2-(5-(3-(trifluoromethyl)benzyl)-4,5-dihydro-3H-spiro[benzo[b][1,4]oxazepine-2,4′-piperidine]-1′-yl)ethyl)acetamide]	pIC50 [2]: < 5.00
–	CC(C)(C)c1ccc(CN2CCC3(CCN(C(=O)CNC(=O)c4cccs4)CC3)Oc3ccccc32)cc1 [Compound 44]	pIC50 [2]: 6.30 to 7.30
–	CC(C)(C)c1ccc(CN2CCC3(CCN(c4ncc(C(=O)NCc5ccccn5)s4)CC3)Oc3c(F)cccc32)cc1 [Compound 106]	pIC50 (Table 2, compounds of formula (Ib)): < 5.00
7.31 to 9.30	CC(C)Oc1ccc(CN2CCC3(CCN(c4ccc(C(=O)NCCC5CC5)nn4)CC3)Oc3ccccc32)cc1 [Compound 178]	–
7.31 to 9.30	O=C(NCCc1ccncc1)c1ccc(N2CCC3(CC2)CCN(Cc2cccc(C(F)(F)F)c2)c2ccccc2O3)nn1 [Compound 165]	–

— patent US20120220567A1, “BENZO-FUSED OXAZEPINE COMPOUNDS AS STEAROYL-COENZYME A DELTA-9 DESATURASE INHIBITORS” (priority 2009, published 2012)
